Experimental findings from US11596716B2, “Compounds and matrices for use in bone growth and repair” (Human BioMolecular Research Institute, priority 2013, dated 2023) are described below.

Molecules are shown by their SMILES. Read-outs that look alike come from different tables or passages of the source.

By EC50 is commonly meant the concentration that produces a half-maximal response.

Data set [1] relates to C2C12 cells. The data set can be described thus: Alizarin Red S staining (calcium deposition) in C2C12 cells. Type of data set: cell-based, Mouse. Conditions: 500 nM, 25 days of treatment. Here is the method:
Alizarin Red S Staining: C2C12 cells were cultured as described for the ALP functional activity assay (above, except compound was added every 48 hr for 25 days), but using 48-well plate format. On day 25, medium was removed and the cells were washed with PBS (calcium and magnesium free). Cells were fixed with 70% ethanol at room temperature for 30 mins, rinsed with water 3×. Following removal of water, 200 μl of Alizarin Red S (2%, pH 4.1) was added to each well and incubated for at least 20 mins. The dye was removed and the cells were washed with excess H2O four times with gentle mixing. The cells were covered with water to prevent evaporation and analyzed by plate reader or microscope. This protocol was applied to hMSC and E15 cells.

The test system of data set [2] is hMSCs. As to the kind of experiment: Alamar blue cell viability assay in hMSCs. Type of data set: cell-based, human. Conditions: 500 nM, 25-day-old hMSCs. Here is the method: (§1) Cell proliferation/viability assay: Cells were seeded at a density of 500 cells/well on 96-well plates. After 24 hr, compound (i.e., 5 nM, 50 nM, 500 nM or 5000 nM) was added to the cells in the presence or absence of calcium phosphate matrix (5 mg/mL). One-half of the media was replaced with fresh media containing compound every 48 hours for 8 days. At the specified time, 1 μg of Resazurin was added to each well of the 96-well plate and the fluorescence signal at 590 nm (excitation at 530 nm) was immediately measured. Readings were designated as time zero values (value0h). Cells were incubated for 1 hr before a second fluorescence measurement at 590 nm was made (value1h). The difference in 1 hr and 0 h (value1h−value0h) readings were used to plot the fold-change in cell proliferation/viability after normalizing to control conditions (i.e., DMSO vehicle treatment). Compounds of Formula II or IV that activate Wnt signaling and compounds of Formula VI that activate TLR signaling pathways were analyzed. This protocol was applied to hMSC and E15 cells as well. Cell proliferation was not robust in keeping with a narrow number of cells highly committed to the bone cell lineage.
The assay for cell proliferation followed the same procedure with hMSCs as described for C2C12 cells (Example 7).
On the technique in general: The colour change of resazurin is a common sign of viable cells or microbes.

Data set [3] relates to C2C12 cells. The data set can be described thus: Cell proliferation/viability assay (Resazurin / Alamar blue) in C2C12 cells. The data set is classed as cell-based, Mouse. Conditions: for cell viability (Alamar blue): 500 nM every 48 hrs for 25 days. Here is the method: as §1, with “One-half of the media was replaced with fresh media containing compound every 48 hours for 8 days.” left out

Data set [4] has as its system C2C12 cells. As to the kind of experiment: qPCR of apoptosis biomarkers (Bax and Fos) in C2C12 cells. The data set is classed as cell-based, Mouse. Conditions: 500 nM or 5 μM every 48 hrs, up to 25 days. For orientation: In qPCR the cycle at which signal appears reflects the starting amount.
Data set [5] concerns hMSCs. The data set can be described thus: qPCR of apoptosis biomarkers (Bax and Fos) in hMSCs. The data set is classed as cell-based, human. The note with it: for gene expression of apoptosis biomarkers (Bax and Fos): 500 nM to 5 μM, up to 25 days; for cytotoxicity as determined by quantification of apoptosis: hMSCs.
For data set [6], the system named is C2C12 cells. The data set can be described thus: Alkaline Phosphatase (ALP) functional activity assay in C2C12 cells. Type of data set: cell-based, Mouse. The note with it: 500 nM; for ALP activity, combination of compound and matrix compared to compound alone or matrix alone: 6 day incubation, tricalcium phosphate ceramic matrix 5 mg/mL (FIG. 2); for ALP activity fold-changes +/− SD, −matrix / ALP activity fold-changes +/− SD, +matrix: 6 days of culture; for ALP activity fold-changes +/− SD, −matrix: absence of matrix, versus untreated (DMSO) cells; for ALP activity fold-changes +/− SD, +matrix: calcium phosphate ceramic 5 mg/mL. In outline: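 C2C12 cells were seeded in 12-well plates at 7,000 cells/well in 1 mL growth media and exposed to compound in 0.1% DMSO (500 nM). Every 48 hrs half the media was replaced with fresh compound-containing media. After 6 days, cells were lysed and ALP activity measured by pNPP hydrolysis at OD405, normalized to protein and DMSO controls.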

Data set [7] concerns hMSCs. The data set can be described thus: Alkaline Phosphatase functional activity assay in hMSCs. The data set is classed as cell-based, human. More on the design: key to Alkaline Phosphatase activity, −matrix, 8 days / Alkaline Phosphatase activity, +matrix, 8 days / Alkaline Phosphatase activity, −matrix, 25 days / Alkaline Phosphatase activity, +matrix, 25 days: fold-change vs DMSO-treated control (control = 1). The note with it: for ALP functional activity, compound and matrix versus compound alone or matrix alone / Alkaline Phosphatase activity, +matrix, 8 days / Alkaline Phosphatase activity, +matrix, 25 days / Alkaline Phosphatase activity, −matrix, 25 days / Alkaline Phosphatase activity, −matrix, 8 days: 500 nM; for ALP functional activity, compound and matrix versus compound alone or matrix alone: 8 and 25 day incubations, matrix 5 mg/mL (FIG. 3); for Alkaline Phosphatase activity, +matrix, 8 days / Alkaline Phosphatase activity, +matrix, 25 days: matrix 5 mg/mL; for Alkaline Phosphatase activity, +matrix, 8 days / Alkaline Phosphatase activity, +matrix, 25 days / Alkaline Phosphatase activity, −matrix, 25 days / Alkaline Phosphatase activity, −matrix, 8 days: mean +/− SD (n = 3); for Alkaline Phosphatase activity, −matrix, 8 days: fold; for EC50: dose-dependent induction in hMSCs, read-out: EC50 of induction of ALP activity.

Data set [8] relates to C2C12 cells. As to the kind of experiment: qPCR detection of osteogenic markers in C2C12 cells. Type of data set: cell-based, Mouse. Conditions: 500 nM, 6 days.

Consider `CC(C)[C@H](N)C(=O)Oc1ccc(/C=C/C(O)=C2\CCC/C(=C\c3ccc(OC(=O)[C@@H](N)C(C)C)cc3)C2=O)cc1` [Compound 4, 4-((1E,3Z)-3-(3-((E)-4-((L-valyl)oxy)benzylidene)-2-oxocyclohexylidene)-3-hydroxyprop-1-en-1-yl)phenyl L-valinate], for which the “calcium deposition, absence of matrix” value in the data set with C2C12 cells [1] was “marked calcium deposition”. Besides, the “cell viability (Alamar blue)” value in the data set with hMSCs [2] was “no decrease in cell viability”. For the same molecule, in the data set with C2C12 cells [3], the “cell viability (Alamar blue)” value was “did not show a decrease in cell viability”. Moreover, the “gene expression of apoptosis biomarkers (Bax and Fos)” value (“gene expression” for short) in the data set on C2C12 cells [4] is recorded as “unable to detect gene expression of typical apoptosis biomarkers”. For the same molecule, in the data set with hMSCs [5], the “gene expression” value is reported as “unable to detect gene expression of typical apoptosis biomarkers”; the “cytotoxicity as determined by quantification of apoptosis” value (shortened to “cytotoxicity as determined”) is recorded as “no cytotoxicity”. Moreover, in the data set with C2C12 cells [6], the “ALP activity, combination of compound and matrix compared to compound alone or matrix alone” value is “synergistic increase in ALP activity”; the “ALP activity fold-changes +/− SD, −matrix” value is on record as 1.7 ± 0.2 fold; the “ALP activity fold-changes +/− SD, +matrix” value is 2.6 ± 0.3 fold. For the same molecule, in the data set with hMSCs [7], the “ALP functional activity, compound and matrix versus compound alone or matrix alone” value is given as “exceeded the effect of compound alone or matrix alone”; the “Alkaline Phosphatase activity, +matrix, 8 days” value came to 2.7 ± 0.2; the “Alkaline Phosphatase activity, +matrix, 25 days” value is given as 4.0 ± 0.4; the “Alkaline Phosphatase activity, −matrix, 25 days” value was determined as 1.8 ± 0.2. In the data set on hMSCs [7], the “Alkaline Phosphatase activity, −matrix, 8 days” value stood at 1.5 ± 0.1. For the same molecule, the concentration giving a half-maximal response (EC50) in the data set on hMSCs [7] (Homo sapiens) was found to be 0.13 µM. For the same molecule, in the data set with C2C12 cells [8], the “ID3 mRNA expression, presence of matrix” value is “increased expression”.

Take `CC(C)[C@H](N)C(=O)Oc1ccc(C=CC(=O)C=C(O)C=Cc2ccc(OC(=O)[C@@H](N)C(C)C)cc2)cc1` [Compound 3, (2S,2′S)—O,O′-(3-hydroxy-5-oxohepta-1,3,6-triene-1,7-diyl)bis(4,1-phenylene) bis(2-amino-3-methylbutanoate)]: the “calcium deposition, absence of matrix” value with C2C12 cells [1] is recorded as “marked calcium deposition”. Also, the “cell viability (Alamar blue)” value with hMSCs [2] is given as “no decrease in cell viability”. The “increase in cell proliferation (Alamar Blue Assay)” value in the data set on C2C12 cells [3] (50 nM, 3 days) is reported as 4 fold. The “cell viability (Alamar blue)” value in the data set on C2C12 cells [3] is “did not show a decrease in cell viability”. For the same molecule, in the data set with C2C12 cells [4], the “gene expression” value was “unable to detect gene expression of typical apoptosis biomarkers”. Moreover, in the data set on hMSCs [5], the “gene expression” value is listed as “unable to detect gene expression of typical apoptosis biomarkers”; the “cytotoxicity as determined” value is recorded as “no cytotoxicity”. In the data set with C2C12 cells [6], the “ALP activity, combination of compound and matrix compared to compound alone or matrix alone” value was “synergistic increase in ALP activity”; the “ALP activity fold-changes +/− SD, −matrix” value is 1.7 ± 0.2 fold. Moreover, in the data set on hMSCs [7], the “ALP functional activity, compound and matrix versus compound alone or matrix alone” value is listed as “exceeded the effect of compound alone or matrix alone”; the “Alkaline Phosphatase activity, +matrix, 8 days” value turned out to be 1.8 ± 0.1; the “Alkaline Phosphatase activity, +matrix, 25 days” value is 2.3 ± 0.2; the “Alkaline Phosphatase activity, −matrix, 25 days” value is given as 1.7 ± 0.1. In the data set with hMSCs [7], the “Alkaline Phosphatase activity, −matrix, 8 days” value is listed as 1.5 ± 0.1 and the EC50 turned out to be 0.14 µM. For the same molecule, the “ID3 mRNA expression, presence of matrix” value with C2C12 cells [8] was “increased expression”.

Regarding `CC(=O)N1c2ccc(C)cc2[C@H](Nc2ccc(C)cc2)C[C@@H]1C` (relative stereo) [Compound 1, cis-1-acetyl-2,6-dimethyl-N-(p-methylphenyl)-1,2,3,4-tetrahydroquinolin-4-amine], in the data set with C2C12 cells [1], the “calcium deposition, absence of matrix” value worked out at 1.6 fold and the “calcium deposition, presence of matrix” value came out at 2.5 fold. The “cell viability (Alamar blue)” value with hMSCs [2] is reported as “no decrease in cell viability”. Besides, the “cell viability (Alamar blue)” value in the data set on C2C12 cells [3] is “did not show a decrease in cell viability”. For the same molecule, in the data set on C2C12 cells [4], the “gene expression” value was “unable to detect gene expression of typical apoptosis biomarkers”. In addition, in the data set with hMSCs [5], the “gene expression” value is “unable to detect gene expression of typical apoptosis biomarkers”; the “cytotoxicity as determined” value is given as “no cytotoxicity”. In addition, in the data set with C2C12 cells [6], the “ALP activity, combination of compound and matrix compared to compound alone or matrix alone” value is reported as “synergistic increase in ALP activity”; the “ALP activity fold-changes +/− SD, +matrix” value was 19.4 ± 2.0 fold. Besides, in the data set on hMSCs [7], the “ALP functional activity, compound and matrix versus compound alone or matrix alone” value was “exceeded the effect of compound alone or matrix alone”; the “Alkaline Phosphatase activity, +matrix, 8 days” value is listed as 1.5 ± 0.1; the “Alkaline Phosphatase activity, +matrix, 25 days” value was determined as 3.6 ± 0.4; the “Alkaline Phosphatase activity, −matrix, 25 days” value is listed as 1.5 ± 0.1. The “Alkaline Phosphatase activity, −matrix, 8 days” value in the data set with hMSCs [7] is 1.2 ± 0.1. Moreover, the EC50 with hMSCs [7] (Homo sapiens) worked out at 0.026 µM. Besides, in the data set on C2C12 cells [8], the “ID3 mRNA expression, absence of matrix” value was found to be 1.8 fold and the “ID3 mRNA expression, presence of matrix” value is 5.0 fold.
